The source of these data is patent US4165384A, “Amide substituted phenoxy propanol amines” (priority 1974, dated 1979).

What is called ED50 is the dose at which the effect has come halfway, by size or by number of responders.

Experiment [1] addresses T1, cardial β-receptors (Felis catus, UniProt Q9TST6).
T1 construct: from tissue; host or cells: heart in situ of anesthetized, reserpinized, vagotomized cat (in vivo, heart rate)
Briefly: Block of isoprenaline, heart rate (HR), reserpinized anesthetized cat. The experiment is classed as in vivo. The settings on record: iv, read-out: Block of isopren ED50 HR. How it is done:
(§1) The β-receptor blocking agents of the present invention were tested as regards their biological properties. All compounds were thereby tested in anesthetized cats (males and females weighing 2.5-3.5 kg) pretreated with reserpine (5 mg/kg body weight administered intra musculary) about 16 hours before the experiments. The animals were pretreated with reserpine in order to eliminate the endogenous sympathetic control of heart rate and vascular smooth muscle tone. The cats were anaesthetized with pentobarbital (30 mg/kg body weight administered i.p.) and artifically ventilated with room air. A bilateral vagotomy was performed in the neck. Blood pressure was obtained from a cannulated carotid artery and heart rate was registered from a cardiotachometer, triggered by the electrocardiogram. (ECG) Intrinsic beta-mimetic activity on the heart was seen as increased heart rate after drug administration. The test compounds were given intravenously in logarithmically increasing doses. The values obtained were plotted on dose-response curves, from which affinity values (ED50) were estimated. At the end of each experiment high doses of isoprenaline were given in order to obtain the maximal heart rate response.

For experiment [2], the target named is T2, vascular β-receptors (Felis catus, UniProt Q9TST5).
T2 construct: from tissue; host or cells: vascular smooth muscle in situ of anesthetized, reserpinized cat (in vivo, isoprenaline vasodilation)
Nature of the experiment: Block of isoprenaline, PR (vascular), reserpinized anesthetized cat. The settings on record: iv, read-out: Block of isopren ED50 PR. The experiment is classed as in vivo. How it is done: as §1

The subject of experiment [3] is heart. Nature of the experiment: Intrinsic β-mimetic activity on the heart (increased heart rate), reserpinized cat. The settings on record: i.v. The experiment is classed as in vivo. How it is done:
as §1

Experiment [4] is described as follows: Effect on arterial blood pressure in conscious dogs. Particulars: conscious dog, after 1.5 mg/kg i.v.; for ΔBP Supino: supine. The experiment is classed as in vivo, Beagle dogs. How it is done:
The compounds were also tested on conscious dogs. Beagle dogs were trained to be lying quietly and to be lifted to an erect position by placing their forelegs on a table for 2 minutes. Arterial blood pressure was registered via a blood pressure transducer attached to the dog at the heart level. Heart rate was triggered from the ECG. All dogs were pretreated with methylscopolamine to avoid vagal influences. Recordings were taken before and 15 and 75 min after administration of the test compound, first in supine position for 2 min and then in the erect position for 2 minutes. The test compounds were given in increasing doses with 2 hours intervals.

[5] abbreviates: reserpinized cat, i.v., heart rate.

Like-named read-outs stand apart in the source and are kept apart here.

T1 sequence (Q9TST6 whole entry): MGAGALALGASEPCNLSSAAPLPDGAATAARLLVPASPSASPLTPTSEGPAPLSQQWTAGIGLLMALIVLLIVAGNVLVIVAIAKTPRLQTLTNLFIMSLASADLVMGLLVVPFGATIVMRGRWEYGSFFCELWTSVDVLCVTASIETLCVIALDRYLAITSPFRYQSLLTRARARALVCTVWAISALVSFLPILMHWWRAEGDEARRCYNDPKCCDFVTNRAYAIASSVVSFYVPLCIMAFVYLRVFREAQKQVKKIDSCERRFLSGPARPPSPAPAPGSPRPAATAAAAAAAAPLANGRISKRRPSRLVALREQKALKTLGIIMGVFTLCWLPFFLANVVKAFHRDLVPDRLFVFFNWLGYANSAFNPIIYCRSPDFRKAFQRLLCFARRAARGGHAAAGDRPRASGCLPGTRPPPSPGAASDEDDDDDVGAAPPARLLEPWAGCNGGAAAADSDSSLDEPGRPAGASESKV
T2 sequence (Q9TST5 whole entry): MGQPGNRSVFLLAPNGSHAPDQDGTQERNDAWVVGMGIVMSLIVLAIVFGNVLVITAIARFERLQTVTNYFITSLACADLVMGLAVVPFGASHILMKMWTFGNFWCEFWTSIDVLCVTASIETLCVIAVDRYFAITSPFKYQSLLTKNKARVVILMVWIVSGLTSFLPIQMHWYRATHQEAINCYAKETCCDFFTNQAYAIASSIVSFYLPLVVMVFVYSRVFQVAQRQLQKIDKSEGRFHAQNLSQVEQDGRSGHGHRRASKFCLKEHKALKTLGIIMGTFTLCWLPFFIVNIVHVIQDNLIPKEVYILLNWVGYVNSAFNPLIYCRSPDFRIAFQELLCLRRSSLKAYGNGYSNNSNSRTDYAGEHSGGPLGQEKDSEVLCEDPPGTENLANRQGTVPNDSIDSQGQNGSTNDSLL

Take `C=CCc1ccccc1OCC(O)CNCCOc1ccc(C(N)=O)cc1` (stereo not drawn) [Ex 1, 1[2-(4-carbamylphenoxy)-ethylamino]-3-(2-allylphenoxy)propanol-2]: in experiment [1] (setting [5]), the ED50 turned out to be 0.3 mg/kg. Besides, in experiment [2] (reserpinized cat, i.v., PR), the ED50 turned out to be 1.8 mg/kg. Further, in experiment [3], the Intrinsic activity is reported as 0 beats/min. Further, in experiment [4], the “ΔBP Erect” value was -45 mm Hg and the “ΔBP Supino” value is recorded as -28 mm Hg.
Regarding `Cc1ccc(Cl)c(OCC(O)CNCCOc2ccc(C(N)=O)cc2)c1` (stereo not drawn) [Ex 2, 1-[2-(4-carbamylphenoxy)ethylamino]-3-(2-chloro-5-methylphenoxy)propanol-2], the ED50 in experiment [1] (setting [5]) was determined as 0.3 mg/kg; in experiment [2] (reserpinized cat, i.v., PR), 4.6 mg/kg. Further, in experiment [3], the Intrinsic activity is recorded as 0 beats/min.
In the same order, the values of `COCCc1ccc(OCC(O)CNCCOc2ccc(C(N)=O)cc2)cc1` (stereo not drawn) [Ex 3, 1-[2-(4-carbamylphenoxy)ethylamino]-3-(2-methoxyethyl)phenoxypropanol-2] are 1.1 mg/kg, 8.5 mg/kg and 0 beats/min.
For the compound `C=CCc1ccccc1OCC(O)CNC(C)COc1ccc(C(N)=O)cc1` (stereo not drawn) [Ex 5, 1-[1-methyl-2-(4-carbamylphenoxy)ethylamino]-3-(2-allylphenoxy)propanol-2], the ED50 in experiment [1] (setting [5]) was found to be 0.05 mg/kg. Besides, in experiment [2] (reserpinized cat, i.v., PR), the ED50 was 0.2 mg/kg. Besides, the Intrinsic activity result in experiment [3] is on record as “+15 beats/min”. In experiment [4], the “ΔBP Erect” value was -42 mm Hg and the “ΔBP Supino” value is reported as -43 mm Hg.
With `C=CCc1ccccc1OCC(O)CNC(C)COc1ccccc1C` (stereo not drawn) [Ex 6, 1-[1-methyl-2-(2-methylphenoxy)-ethylamino]-3-(2-allylphenoxy)propanol-2], the median effective dose (ED50) in experiment [1] (setting [5]) came out at 0.5 mg/kg; in experiment [2] (reserpinized cat, i.v., PR) it was 0.5 mg/kg. Besides, the Intrinsic activity result in experiment [3] is recorded as “+24 beats/min”.
Regarding `COC(=O)NCCc1ccc(OCCNCC(O)COc2ccccc2C)cc1` (stereo not drawn) [Ex 9, 1-[4-(2-(2-methoxycarbonylamino)ethyl)phenoxyethylamino]-3-(2-methylphenoxy)-propanol-2], the 50% effective dose (ED50) in experiment [1] (setting [5]) turned out to be 0.3 mg/kg; in experiment [2] (reserpinized cat, i.v., PR) it was 2.4 mg/kg. In addition, the Intrinsic activity result in experiment [3] is “+40 beats/min”.
For the compound `NC(=O)c1ccc(OCCNCC(O)COc2ccccc2Cl)cc1` (stereo not drawn) [Ex 11, 1-[2-(4-carbamoylphenoxy)ethylamino]-3-(2-chlorophenoxy)propanol-2], the ED50 in experiment [1] (setting [5]) was found to be 0.05 mg/kg. Also, the 50% effective dose (ED50) in experiment [2] (reserpinized cat, i.v., PR) came out at 1 mg/kg. Further, the Intrinsic activity result in experiment [3] is given as “+16 beats/min”. Besides, in experiment [4], the “ΔBP Erect” value was -20 mm Hg and the “ΔBP Supino” value was -28 mm Hg.
In the case of `C=CCOc1ccccc1OCC(O)CNCCOc1ccc(C(N)=O)cc1` (stereo not drawn) [Ex 17], the ED50 in experiment [1] (setting [5]) is 0.1 mg/kg. For the same compound, the ED50 in experiment [2] (reserpinized cat, i.v., PR) came out at 1.5 mg/kg. The Intrinsic activity result in experiment [3] is “+8 beats/min”. Also, in experiment [4], the “ΔBP Erect” value is listed as -46 mm Hg and the “ΔBP Supino” value is recorded as -23 mm Hg.
`C#CCOc1ccccc1OCC(O)CNCCOc1ccc(C(N)=O)cc1` (stereo not drawn) [Ex 18]: the ED50 in experiment [1] (setting [5]) came to 0.04 mg/kg; in experiment [2] (reserpinized cat, i.v., PR) it was 0.3 mg/kg. Besides, the Intrinsic activity entry in experiment [3] is “+13 beats/min”.
Take `NC(=O)Cc1ccccc1OCC(O)CNCCOc1ccc(C(N)=O)cc1` (stereo not drawn) [Ex 19]: the ED50 in experiment [1] (setting [5]) was 1.7 mg/kg; in experiment [2] (reserpinized cat, i.v., PR) it was < 8.5 mg/kg. The Intrinsic activity in experiment [3] was determined as 0 beats/min.
In the case of `NC(=O)c1ccc(OCCNCC(O)COc2ccccc2OCC(=O)NCCO)cc1` (stereo not drawn) [Ex 20, 1-[2-(4-carbamylphenoxy)ethylamino]-3-[2-(ω-hydroxyethylaminocarbonylmethoxy)phenoxy]-propanol-2], the ED50 in experiment [1] (setting [5]) is 0.03 mg/kg; in experiment [2] (reserpinized cat, i.v., PR), < 8.5 mg/kg.
`COCCc1ccc(OCC(O)CNC(C)C)cc1` (stereo not drawn) [Metroprolol, 1-isopropylamino-3-[4-(2-methoxyethyl)phenoxy]-propanol-2, reference compound]: the ED50 in experiment [1] (cat) stood at 0.2 mg/kg. Moreover, the median effective dose (ED50) in experiment [2] (cat) was found to be 4.7 mg/kg. Besides, the Intrinsic activity in experiment [3] is given as 0 beats/min. Further, in experiment [4], the “ΔBP Erect” value is -3 mm Hg and the “ΔBP Supino” value is reported as -5 mm Hg.
On to `CC(=O)Nc1ccc(OCC(O)CNC(C)C)cc1` (stereo not drawn) [Practolol, 4-(2-hydroxy-3-isopropylaminopropoxy)acetanilide, reference compound], for which the 50% effective dose (ED50) in experiment [1] (setting [5]) is 0.3 mg/kg; in experiment [2] (reserpinized cat, i.v., PR), 35 mg/kg. In addition, the Intrinsic activity result in experiment [3] is recorded as “+15 beats/min”.
In experiment [3], `CC(C)NCC(O)COc1cccc2ccccc12` (stereo not drawn) [Propranolol, 1-isopropylamino-3-(1-naphtoxy)-propanol-2, reference compound] registered an Intrinsic activity of 0 beats/min. For the same compound, in experiment [4], the “ΔBP Erect” value is listed as 0 mm Hg and the “ΔBP Supino” value was “+5 mm Hg”.
